This is an account of results in paper PMC3898920 (PLoS ONE, 2014).

In general, AUC refers to the area under the concentration-time curve, a measure of exposure.

Data set [1] is described as follows: Steady-state plasma pharmacokinetics of rifabutin and 25-O-desacetylrifabutin, alone and with lopinavir/ritonavir. The settings on record: for AUC: AUCτ; for C0: pre-dose.
The conditions of data set [2]: co-administered RMP; trial protocol background; cited from earlier work.
Data set [3] is described as follows: Plasma lopinavir and ritonavir pharmacokinetics during rifabutin co-administration. The note with it: for Effect of the different doses of rifabutin on plasma concentrations: rifabutin 150 mg OD vs 150 mg TPW.
Details of data set [4]: method as in earlier work. The note with it: study from the University of Cape Town; trial protocol background; cited from earlier work.
The conditions of data set [5]: South Africa, cited from earlier work.
Data set [6] can be described thus: Adverse events during the trial.
The mark [7] stands for this setting: rifabutin 150 mg OD with lopinavir/ritonavir, end of dosing interval 24 h, median (range).
Where [8] appears, read: rifabutin 150 mg OD with lopinavir/ritonavir, median (range).
[9] abbreviates: rifabutin 150 mg TPW plus LPV/r vs rifabutin 300 mg OD alone.
The mark [10] stands for this setting: rifabutin 150 mg TPW with lopinavir/ritonavir, median (range).
Setting [11] is: rifabutin 300 mg OD alone, median (range).
The mark [12] stands for this setting: All patients, pooled whatever the RBT dosing, median (range).
The mark [13] stands for this setting: LPV/r 400 mg/100 mg twice daily with RBT 150 mg OD, median (range).
Where [14] appears, read: rifabutin 150 mg OD plus LPV/r vs rifabutin 300 mg OD alone.
Where [15] appears, read: LPV/r 400 mg/100 mg twice daily with RBT 150 mg TPW, median (range).

Take “25-O-desacetylrifabutin [25-O desacetyl rifabutin]”: the “Cmin n = 15” value in data set [1] (setting [7]) is 114 (73 – 253) ng/mL; in data set [1] (rifabutin 150 mg TPW with lopinavir/ritonavir, end of dosing interval 48 h, median (range)) it was 67 (11 – 214) ng/mL; in data set [1] (rifabutin 300 mg OD alone, end of dosing interval 24 h, median (range)), 6 (0 – 33) ng/mL. Also, the “Cmin n = 25” value in data set [1] (setting [7]) is 115 (59 – 253) ng/mL. Besides, the Tmax is reported as 4 (2 – 8) h in data set [1] (setting [8]), 4 (2 – 6) h in data set [1] (setting [10]) and 3 (0 – 5) h in data set [1] (setting [11]). The “C0 geometric mean ratio (90% CI)” value in data set [1] (setting [9]) is given as 4.35 (3.14;6.02).

Turning to `O=C1Nc2ccc(Cl)cc2[C@@](C#CC2CC2)(C(F)(F)F)O1` [EFV, efavirenz], the “Reduction of bioavailability by RMP” value in data set [2] was “approximately 25%”.

Turning to `Cc1cccc(C)c1OCC(=O)N[C@@H](Cc1ccccc1)[C@@H](O)C[C@H](Cc1ccccc1)NC(=O)[C@H](C(C)C)N1CCCNC1=O` [Lopinavir], the “C0 (trough concentration)” value in data set [3] (setting [12]) is given as 8739 (<50– 31171) ng/mL; in data set [3] (setting [13]), 9155 (399–27567) ng/mL. In addition, the “Effect of the different doses of rifabutin on plasma concentrations” value in data set [3] was “no significant effect”.

For `Cc1ccnc2c1NC(=O)c1cccnc1N2C1CC1` [NVP, nevirapine], the “Reduction of bioavailability by RMP” value in data set [2] is 35%.

Consider `CO[C@H]1/C=C/O[C@@]2(C)Oc3c(C)c(O)c4c(O)c(c(/C=N/N5CCN(C)CC5)c(O)c4c3C2=O)NC(=O)/C(C)=C\C=C\[C@H](C)[C@H](O)[C@@H](C)[C@@H](O)[C@@H](C)[C@H](OC(C)=O)[C@@H]1C` [RMP, rifampicin], for which the “Reduction of drug concentrations by HIV infection” value in data set [4] was 39%.

`CO[C@H]1/C=C/O[C@@]2(C)Oc3c(C)c(O)c4c(c3C2=O)C2=NC3(CCN(CC(C)C)CC3)NC2=C(NC(=O)/C(C)=C\C=C\[C@H](C)[C@H](O)[C@@H](C)[C@@H](O)[C@@H](C)[C@H](OC(C)=O)[C@@H]1C)C4=O` [Rifabutin]: the “AUCτ, median” value in data set [5] (300 mg OD dose) was 3053 ng·h/mL. In addition, the “Patients with areas under the curve less than 4.5 µg.h/mL” value in data set [5] (intermittent dose (three times a week) with LPV/r) is “over 85%”. The “Number of patients with AUCτ less than 4.5 µg.h/mL” value in data set [1] (150 mg OD regimen with LPV/r) is “one”; in data set [1] (150 mg TPW regimen with LPV/r), “four”; in data set [1] (300 mg OD regimen alone), “six”. Also, the “Number of patients with Cmax less than 0.3 µg/mL” value in data set [1] (150 mg TPW regimen with LPV/r) is “one”. Besides, the Tmax in data set [1] (human, plasma, oral, 150 mg) is 3 h; in data set [1] (setting [10]) it was 3 (0 – 5) h. Also, the AUC in data set [1] (human, plasma, oral, 150 mg, rifabutin 150 mg OD with lopinavir/ritonavir, τ 24 h, median (range)) came to 7290 ng·h/mL; in data set [1] (human, plasma, oral, 150 mg, rifabutin 150 mg TPW with lopinavir/ritonavir, τ 48 h, median (range)), 7340 ng·h/mL; in data set [1] (human, plasma, oral, 300 mg, rifabutin 300 mg OD alone, τ 24 h, median (range)) it was 5640 ng·h/mL. Also, the Cmax was 671 ng/mL in data set [1] (human, plasma, oral, 150 mg, rifabutin 150 mg OD with lopinavir/ritonavir, median (range)); 544 ng/mL in data set [1] (human, plasma, oral, 150 mg, rifabutin 150 mg TPW with lopinavir/ritonavir, median (range)); 792 ng/mL in data set [1] (human, plasma, oral, 300 mg, rifabutin 300 mg OD alone, steady state, median (range)). The concentration at 24 h in data set [1] (human, plasma, oral, Cmin n = 15, rifabutin 150 mg OD with lopinavir/ritonavir, end of dosing interval 24 h, median (range)) was found to be 161 ng/mL; in data set [1] (human, plasma, oral, Cmin n = 15, rifabutin 300 mg OD alone, end of dosing interval 24 h, median (range)), 61 ng/mL; in data set [1] (human, plasma, oral, Cmin n = 25, rifabutin 150 mg OD with lopinavir/ritonavir, end of dosing interval 24 h, median (range)) it was 169 ng/mL; in data set [1] (human, plasma, oral, Cmin n = 25, rifabutin 300 mg OD alone, end of dosing interval 24 h, median (range)) it was 79 ng/mL. The concentration at 48 h in data set [1] (human, plasma, oral, Cmin n = 15, rifabutin 150 mg TPW with lopinavir/ritonavir, end of dosing interval 48 h, median (range)) came to 54 ng/mL. Also, the results for the “AUCτ geometric mean ratio (90% CI)” value in data set [1] (rifabutin 150 mg OD plus LPV/r (AUC24h) vs rifabutin 300 mg OD alone) and in data set [1] (rifabutin 150 mg TPW plus LPV/r (AUC48h) vs rifabutin 300 mg OD alone) were 1.32 (1.16;1.51) and 1.12 (0.92;1.37), respectively. Further, the “C0 geometric mean ratio (90% CI)” value is 2.61 (2.13;3.19) in data set [1] (setting [14]) and 0.94 (0.73;1.21) in data set [1] (setting [9]). The “Cave geometric mean ratio (90% CI)” value in data set [1] (setting [14]) was 1.32 (1.16;1.51); in data set [1] (setting [9]), 0.56 (0.46;0.69). For the same compound, the “Cmax geometric mean ratio (90% CI)” value in data set [1] (setting [14]) is 0.88 (0.75;1.04); in data set [1] (setting [9]), 0.65 (0.51;0.83). The “Cave (AUCτ/τ)” value was 304 (147–521) ng/mL in data set [1] (setting [8]), 153 (30–227) ng/mL in data set [1] (setting [10]) and 235 (113–370) ng/mL in data set [1] (setting [11]). The C0 in data set [1] (setting [8]) is 180 (121 – 310) ng/mL; in data set [1] (setting [10]), 70 (25 – 413) ng/mL; in data set [1] (setting [11]), 74 (13 – 161) ng/mL. Moreover, the “Decrease in average steady state concentration (Cave)” value in data set [1] (rifabutin 150 mg TPW with LPV/r compared with rifabutin 300 mg alone) turned out to be 44%. In data set [1] (rifabutin 150 mg TPW with LPV/r vs rifabutin monotherapy), the “Decrease in Cmax” value is 35%. In addition, in data set [1] (rifabutin 150 mg daily with LPV/r compared with rifabutin 300 mg alone), the “Mean increase in average steady state concentration (Cave)” value amounted to 32%. Further, the “Bioequivalence of Cave with rifabutin alone (90% CI within 0.80 to 1.25)” value in data set [1] (the two tested dosing regimens (150 mg OD, 150 mg TPW) combined with lopinavir/ritonavir) is “failed to show bioequivalence”. Moreover, in data set [6] (33 enrolled patients), the Uveitis result is “no uveitis”. In addition, the Cases of neutropenia in data set [6] (33 enrolled patients, one grade 3, none grade 4) was determined as 4. Moreover, the “Total adverse events (all grades together)” value in data set [6] (33 enrolled patients, rifabutin-based TB treatment with d4T/3TC/LPV/r, whole follow-up) is 124. Also, the “Hepatic events with raised levels of liver enzymes” value in data set [6] (events occurring in 25 patients, 33 in the first 2 months, 23 after rifabutin was stopped) is reported as 56.

`CC(C)c1nc(CN(C)C(=O)N[C@H](C(=O)N[C@@H](Cc2ccccc2)C[C@H](O)[C@H](Cc2ccccc2)NC(=O)OCc2cncs2)C(C)C)cs1` [Ritonavir]: the entries for the “C0 (trough concentration)” value in data set [3] (setting [12]), in data set [3] (setting [13]) and in data set [3] (setting [15]) were 303 (25–680) ng/mL, 314 (25– 569) ng/mL and 257 (25–680) ng/mL, respectively. Also, the Cmax in data set [3] (setting [15]) is reported as 816 (405–2484) ng/ml. Further, the “Effect of the different doses of rifabutin on plasma concentrations” value in data set [3] is recorded as “no significant effect”.
